Measured values reported in patent US9416099B2 (priority 2010, dated 2016).
Where “and” joins values, the source holds several entries; their conditions need not be identical. Equal entries are not always repeated.

How the values were obtained:
[1] = format: physicochemical
Pseudomonas aeruginosa = format: cell-based
Staphylococcus aureas = format: cell-based
[2] = test system: Pseudomonas aeruginosa and Staphylococcus aureas; format: cell-based

Compound | % Separation 1 h [1] | % Separation 24 h [1] | Adjuvant 1 h, mL separation [mL] | Anionic 1 h, mL separation [mL] | Nonionic 1 h, mL separation [mL] | Adjuvant 24 h, mL separation [mL] | Anionic 24 h, mL separation [mL] | Nonionic 24 h, mL separation [mL] | % Kill, Pseudomonas aeruginosa, 400 ppm (Pseudomonas aeruginosa) [%] | % Kill, Pseudomonas aeruginosa, DI water (Pseudomonas aeruginosa) [%] | % Kill, Staphylococcus aureas, 400 ppm (Staphylococcus aureas) [%] | % Kill, Staphylococcus aureas, DI water (Staphylococcus aureas) [%] | Overall Rating [2]
C[N+](C)(CCCNC(=O)CCCCCCCCC(CCCCCCCC(=O)NCCC[N+](C)(C)CC(=O)[O-])S(=O)(=O)[O-])CC(=O)[O-].[Na+] (stereo not shown) [C18-33, C18 DiBetaine Sulfonate] | 4% and 3% | 4.5% and 3.4% | 0 | 0 | 1 | 0 | 0 | 1 | – | – | – | – | –
C[N+](C)(C)CCCNC(=O)CCCCCCCCC(CCCCCCCC(=O)NCCC[N+](C)(C)C)S(=O)(=O)O.[Na+] (stereo not shown) [C18-28, C18 DiDMAPA DiQuat Sulfonate] | 4% and 3.4% | 4.5% and 3.9% | 0 | 0 | – | 0 | 0 | – | – | – | – | – | –
CCCC(CCCCCCCC(=O)NCCC[N+](C)(C)CC(=O)[O-])S(=O)(=O)[O-].[Na+] (stereo not shown) [C12-23, C12 DMAPA Betaine Sulfonate] | 3% | 3.5% and 3% | 0 | 0 | – | 0 | 0 | 0.25 | – | – | – | – | –
C[N+](C)(C)CCCNC(=O)CCCCCCC/C=C/CCCCCCCC(=O)NCCC[N+](C)(C)[O-] [Mix-35, C18 DiDMAPA Quat AO] | – | – | 0 | 0 | 5 | 0 | 0 | 1 | 22.1 | 31.4 | 20.9 | 55.6 | good
calcium alkylbenzenesulfonate [Control 1, reference compound] | <0.2% | 1.3% | – | – | – | – | – | – | – | – | – | – | –
CC/C=C/CCCCCCCC[N+](C)(C)Cc1ccccc1 [C12-27, C12 Amine Benzyl Quat] | – | – | 0 | 0 | – | 0 | 0 | – | 59.5 | 51.2 | 63.5 | 46.0 | good
